Where two headings read alike, the source gives them in different places.
System: radiation-induced oral mucositis, left buccal cheek pouch
Assay type: in vivo
Details: for mean daily mucositis scores vs untreated control (Mann-Whitney Rank-sum), efficacy: topical three times per day
Source text: In the irradiated hamster cheek pouch model of oral mucositis, the hamster cheek pouch is everted and irradiated to produce a localized mucositis. The progression and resolution of mucositis in the hamster model is very similar to that observed in the human condition and the model has been validated clinically with respect to dosing schedules of therapeutic agents (Murphy et al., Clin. Cancer Res., 2008, 14, 4292-4297; Alvarez et al., Clin. Cancer Res., 2003, 9, 3454-3461; and Schuster et al., J. Clin. Oncol., 2006, 24, 6537). Briefly, on day 0, all animals were given an acute radiation dose directed to their left buccal cheek pouch. Test articles were applied topically to the left pouch three times per day from day 0 to day 20 and mucositis was evaluated clinically starting on day 6, and continued on alternate days until […]. Study endpoints were mucositis score, weight change and survival. Mucositis was scored visually by comparison to a validated photographic scale. The scale ranges from 0 for normal, to 5 for severe ulceration. The clinical mucositis score of 3 in hamsters indicates the presence of an ulcer. In terms of the syndrome, it is believed that the dose-limiting chemotherapeutic- or radiation-induced pain is associated with frank ulceration; therefore a compound that prevents ulceration in the model might have utility in the clinical setting.
To evaluate mucositis severity, animals were anesthetized with an inhalation anesthetic, and the left cheek pouch everted. Mucositis was scored visually by comparison to a validated photographic scale. The scale ranges from 0 for normal, to 5 for severe ulceration. In descriptive terms, this scale is defined as follows: […]
A score of 1-2 is considered to represent a mild stage of injury, whereas a score of 3-5 is considered to indicate moderate to severe mucositis. In terms of the syndrome, it is believed that the dose-limiting chemotherapeutic- or radiation-induced pain is associated with frank ulceration; therefore a compound that prevents ulceration in the model might have utility in the clinical setting. In the hamster model, a clinical mucositis score of 3 indicates the presence of an ulcer and the duration of scores of 3 or greater is used as a primary measurement of efficacy in mucositis treatment. Ulceration is the point in the development of mucositis where the physical integrity of the oral mucosa is breached. In the clinic, a patient presenting with severe oral ulcerations may require hospitalization for analgesic, narcotic and/or antibiotic therapies or fluid support.
On day 0, all animals were given an acute radiation dose directed to their left buccal cheek pouch. This was accomplished by anesthetizing the animals and everting the left buccal pouch, while protecting the rest of the animals with a lead shield. Test agents were applied topically to the left buccal pouch three times per day from day 0 to day 20. Mucositis was evaluated clinically starting on day 6, and continued on alternate days until day 28. Study endpoints were mucositis score, weight change and survival. Mucositis was scored visually by comparison to a validated photographic scale. No treatment-related deaths were recorded throughout the study. The mean daily percent weight gains were similar in all groups and there were no apparent toxicities in any of the test agent treatment groups. Differences between the ulcerative severity in controls and the treated groups were assessed in two ways. First, mean daily mucositis scores for each group at each time-point were compared with the untreated control group using the Mann-Whitney Rank-sum analysis. […] At 0.3 mg/ml, efficacy was partial early in the treatment period.
Alternately, ulcerative severity differences between control and treatment groups were assessed by the comparison of the number of days with an ulcer (i.e., a score of 3 or higher) using a chi-squared (χ2) test.

N=C(N)NCCCCC(=O)Nc1cc(C(F)(F)F)cc(NC(=O)c2cc(C(=O)Nc3cc(C(F)(F)F)cc(NC(=O)CCCCNC(=N)N)c3OC3CCNC3)ncn2)c1OC1CCNC1 (centres unmarked) [Compound X]
mean daily mucositis scores vs untreated control (Mann-Whitney Rank-sum), efficacy (0.3 mg/ml, early in the treatment period): partial
mean daily mucositis scores vs untreated control (Mann-Whitney Rank-sum), efficacy (1, 3 and 10 mg/ml groups, by Day 12 through Day 28): robust efficacy
mucositis scores, number of days with an ulcer (score of 3 or higher), chi-squared test vs control (1, 3 and 10 mg/ml/dose, p<0.001): statistically significant improvements
treatment days with a clinical score ≥3 (1, 3 and 10 mg/ml/dose, vehicle control 42.7%): < 5%
% reduction of animal days with OM scores ≥ 3 (Acute Radiation): 90.6%-95.3%
impact of Kleptose on the response (mucositis scores) (Kleptose in the vehicle or with 1 mg/kg Compound X): did not significantly impact the response
daily mean mucositis scores and number of days animals exhibited ulceration (acute radiation model, oral rinse 3 times daily, 28 day treatment regimen): significantly reduced
adverse findings in weight gain, general behavior in the home cage, or clinical signs (hamster, in vivo): no adverse findings
